Values of other authors, collected in paper PMC11693862 (Acta Biochimica et Biophysica Sinica, 2024).

Key:
SARS-CoV and HCoV-229E = details: cited from earlier work
[1] = tested on: Mpros of HCoV-NL63, HCoV-HUK1, MERS-CoV, and SARS-CoV; details: cited from earlier work
[2] = in vivo; cited from earlier work

## COc1cccc2[nH]c(C(=O)NC(CC(C)C)C(=O)NC(CC3CCNC3=O)C(=O)CO)cc12 (stereo not drawn) [PF-00835231]
SARS-CoV and HCoV-229E
  Antiviral activity, semi-maximum effective concentration (EC50): very low
[1]
  Inhibition of Mpros of HCoV-NL63, HCoV-HUK1, MERS-CoV, and SARS-CoV: inhibits
[2]
  Oral bio-availability: relatively poor
